Data published in patent US20100286139A1, “AMINO PYRAZOLE COMPOUND” (ELI LILLY AND COMPANY, priority 2008, published 2010).

Biological target: T1, JAK2V617F (Homo sapiens, UniProt O60674, V617F)
T1 construct: expressed in transfected cells; host or cells: Ba/F3 (murine pro-B) cells
Assay: Ba/F3 JAK2V617F cell-based assay (Cellomics ArrayScan HCS)
Parameters: species or system murine
Settings: Ba/F3 cells expressing JAK2V617F, 60 min compound incubation; read-out: relative IC50, inhibition of pSTAT5
From the text: JAK2 target inhibition has been evaluated in Ba/F3 expressing JAK2 V617F by Western blot as reported in Wernig et al. (Wernig G, et al. Efficacy of TG101348, a selective JAK2 inhibitor, in treatment of a murine model of JAK2V617F-induced polycythemia vera, Cancer Cell, April; 13(4):311-20). A medium throughput Cellomics assay was established to evaluate the JAK2 target inhibition in Ba/F3 cells expressing JAK2V617F. This assay enables the discovery of an effective therapeutic agent to treat disorders associated with JAK2V617F mutation.
Ba/F3 (murine pro-B) cells expressing JAK2V617F maintained in RPMI 1640 with 10% FBS, 0.07% sodium bicarbonate, 1 mM sodium pyruvate, 1× antibiotic/antimycotic (Invitrogen, Carlsbad, Calif.) and 0.45% glucose (Sigma, St Louis, Mo.). Cells are kept at 37° C. with 5% CO2. The test compound is prepared in 100% DMSO at 10 mM concentration. […]
After cell treatment, 500 μL of 1% formaldehyde solution (made freshly with phosphate-buffered saline (PBS) and kept warm at 37° C.) is added to each well. […] An aliquot of 200 μL of 1 to 10 dilution of Mouse anti-pSTAT5 (pY694) Alexa Fluor 647® in fluorescence activated cell sorting (FACS) buffer is added to the cells. […] Mean fluorescent intensity data are collected and analyzed using Cellomics Arrayscan® VTi. […] The relative IC50 is calculated using a 4 parameter logistic curve fitting analysis with ActivityBase 4.0. […]

T1 sequence (O60674 whole entry V617F): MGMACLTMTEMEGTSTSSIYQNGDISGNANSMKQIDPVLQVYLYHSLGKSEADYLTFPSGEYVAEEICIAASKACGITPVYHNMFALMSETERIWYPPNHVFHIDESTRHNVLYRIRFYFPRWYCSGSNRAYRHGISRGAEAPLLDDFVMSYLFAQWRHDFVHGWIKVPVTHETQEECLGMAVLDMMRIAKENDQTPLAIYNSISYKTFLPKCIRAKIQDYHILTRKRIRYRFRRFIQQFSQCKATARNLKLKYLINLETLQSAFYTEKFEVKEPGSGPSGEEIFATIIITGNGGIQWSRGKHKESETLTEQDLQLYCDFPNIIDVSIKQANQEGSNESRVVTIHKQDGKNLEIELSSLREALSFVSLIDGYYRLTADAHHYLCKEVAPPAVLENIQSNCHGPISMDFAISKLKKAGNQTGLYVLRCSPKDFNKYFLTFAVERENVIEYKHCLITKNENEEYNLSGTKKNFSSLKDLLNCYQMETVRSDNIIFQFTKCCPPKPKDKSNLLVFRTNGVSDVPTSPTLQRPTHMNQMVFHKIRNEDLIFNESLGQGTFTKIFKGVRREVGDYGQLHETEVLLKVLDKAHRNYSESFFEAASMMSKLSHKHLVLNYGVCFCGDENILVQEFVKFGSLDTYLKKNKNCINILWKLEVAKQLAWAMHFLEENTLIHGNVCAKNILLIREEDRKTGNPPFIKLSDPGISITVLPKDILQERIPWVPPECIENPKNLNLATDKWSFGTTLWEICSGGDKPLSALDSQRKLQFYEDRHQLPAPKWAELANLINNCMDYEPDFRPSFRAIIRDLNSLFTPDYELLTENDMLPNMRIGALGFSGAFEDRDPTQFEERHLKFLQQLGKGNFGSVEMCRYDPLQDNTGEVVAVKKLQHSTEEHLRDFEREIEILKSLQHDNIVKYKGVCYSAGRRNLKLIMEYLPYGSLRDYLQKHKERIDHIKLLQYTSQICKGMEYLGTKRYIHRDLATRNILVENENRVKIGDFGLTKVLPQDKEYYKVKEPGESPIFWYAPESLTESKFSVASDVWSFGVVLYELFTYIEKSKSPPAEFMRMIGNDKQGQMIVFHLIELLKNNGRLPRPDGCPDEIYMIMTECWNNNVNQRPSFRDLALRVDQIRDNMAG

IC50: 30 nM
SMILES: Cc1cc(Nc2cc(CN3CCOCC3)c3nc(C)c(Cc4ccc(Cl)cc4F)n3n2)n[nH]1 [3-(4-Chloro-2-fluorobenzyl)-2-methyl-N-(5-methyl-1H-pyrazol-3-yl)-8-(morpholinomethyl)imidazo[1,2-b]pyridazin-6-amine]
